The results in this text go back to patent US6841718B2 (priority 2000, dated 2005).

The test system of the assay is bacteria, yeast, algal and fungal spores, and invertebrate larvae. Description: attachment of organisms.

With `O=C(O)C=Cc1ccc(OS(=O)(=O)O)cc1` [Zosteric acid, para-(sulphooxy) cinnamic acid], the “attachment of a wide range of organisms” value is listed as “inhibits attachment”.
